Test results published in patent US12441762B2, “Hepatitis c virus NS3/4A protease inhibitors” (priority 2019, dated 2025).

How the values were obtained:
[1] = target: T1, wild-type HCV NS3/4A protease (GT1a) (Hepatitis C virus genotype 1a, UniProt P27958, C1185S); assay: biochemical; assay type: biochemical
T1 construct: His-tag (cleaved yes); made in house; host or cells: Escherichia coli BL21(DE3), PET28a vector
Experimental: (§1) The HCV GT1a NS3/4A protease gene described in the Bristol Myers Squibb patent was synthesized by GenScript and cloned into a PET28a expression vector. Cys159 was mutated to a serine residue to prevent disulfide bond formation and facilitate crystallization. The D168A gene was engineered using the site-directed mutagenesis protocol from Stratagene. Protein expression and purification were carried out as previously described.
(§2) Km constants for GT1 and D168A protease were previously determined. […] Inner filter effect corrections were applied to the initial velocities (Vo) at each substrate concentration. Vo versus substrate concentration graphs were globally fit to the Michaelis-Menten equation to obtain the Km value.
(§3) For each assay, 2 nM of NS3/4A protease (GT1a and D168A) was pre-incubated at room temperature for 1 h with increasing concentration of inhibitors in assay buffer (50 mM Tris, 5% glycerol, 10 mM DTT, 0.6 mM LDAO, and 4% dimethyl sulfoxide, pH 7.5). Inhibition assays were performed in non-binding surface 96-well black half-area plates (Corning) in a reaction volume of 60 μL. […] Three independent data sets were collected for each inhibitor with each protease construct.

[2] = target: T2, HCV NS3/4A protease D168A variant (Hepatitis C virus genotype 1a, UniProt P27958, C1185S/D1194A); assay: biochemical; assay type: biochemical
T2 construct: His-tag (cleaved yes); made in house; host or cells: Escherichia coli BL21(DE3), PET28a vector
T2 sequence (P27958 1027-1208 C1185S/D1194A): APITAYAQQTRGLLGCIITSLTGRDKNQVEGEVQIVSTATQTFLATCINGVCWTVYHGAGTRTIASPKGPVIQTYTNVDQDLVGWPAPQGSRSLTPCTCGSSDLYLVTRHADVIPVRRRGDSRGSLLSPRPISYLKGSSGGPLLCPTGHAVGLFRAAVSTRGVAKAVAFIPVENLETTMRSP
Experimental: as §1, §2, §3

T1 sequence (P27958 1027-1208 C1185S): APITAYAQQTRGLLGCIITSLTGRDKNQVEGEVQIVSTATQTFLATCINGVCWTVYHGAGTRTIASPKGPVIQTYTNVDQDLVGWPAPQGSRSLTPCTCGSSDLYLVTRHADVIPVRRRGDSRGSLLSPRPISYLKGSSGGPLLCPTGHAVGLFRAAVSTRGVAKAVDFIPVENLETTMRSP

Structure (SMILES)	Ki [1] [µM]	Ki [2] [µM]
COc1ccc2nc(C(F)(F)F)c(O[C@@H]3C[C@H]4C(=O)N[C@]5(C(=O)NS(=O)(=O)C6(C)CC6)C[C@H]5/C=C\CCCCC[C@H](NC(=O)O[C@@H]5CCC[C@H]5F)C(=O)N4C3)nc2c1 [NR02-09, (1R,2R)-2-Fluorocyclopentyl ((2R,6S,13aS,14aR,16aS,Z)-2-((7-methoxy-3-(trifluoromethyl)quinoxalin-2-yl)oxy)-14a-(((1-methylcyclopropyl)sulfonyl)carbamoyl)-5,16-dioxo-1,2,3,5,6,7,8,9,10,11,13a,14,14a,15,16,16a-hexadecahydrocyclopropa[e]pyrrolo[1,2-a][1,4]diazacyclopentadecin-6-yl)carbamate]	0.008 ± 0.0018	0.0189 ± 0.0036
CCC(C)(C)OC(=O)N[C@H]1CCCCC/C=C\[C@@H]2C[C@@]2(C(=O)NS(=O)(=O)C2(C)CC2)NC(=O)[C@@H]2C[C@@H](Oc3nc4cc(OC)ccc4nc3C(F)(F)F)CN2C1=O [NR02-47, tert-Pentyl ((2R,6S,13aS,14aR,16aS,Z)-2-((7-methoxy-3-(trifluoromethyl)quinoxalin-2-yl)oxy)-14a-(((1-methylcyclopropyl)sulfonyl)carbamoyl)-5,16-dioxo-1,2,3,5,6,7,8,9,10,11,13a,14,14a,15,16,16a-hexadecahydrocyclopropa[e]pyrrolo[1,2-a][1,4]diazacyclopentadecin-6-yl)carbamate]	0.00267 ± 0.00023	0.0151 ± 0.001
COc1ccc2nc(C)c(O[C@@H]3C[C@H]4C(=O)N[C@]5(C(=O)NS(=O)(=O)C6(C)CC6)C[C@H]5/C=C\CCCCC[C@H](NC(=O)O[C@@H](C)C(C)C)C(=O)N4C3)nc2c1 [NR01-99, (S)-3-Methylbutan-2-yl ((2R,6S,13aS,14aR,16aS,Z)-2-((7-methoxy-3-methylquinoxalin-2-yl)oxy)-14a-(((1-methylcyclopropyl)sulfonyl)carbamoyl)-5,16-dioxo-1,2,3,5,6,7,8,9,10,11,13a,14,14a,15,16,16a-hexadecahydrocyclopropa[e]pyrrolo[1,2-a][1,4]diazacyclopentadecin-6-yl)carbamate]	0.00191 ± 0.0003	0.0217 ± 0.0023
COc1ccc2nc(C(F)(F)F)c(O[C@@H]3C[C@H]4C(=O)N[C@]5(C(=O)NS(=O)(=O)C6(C)CC6)C[C@H]5/C=C\CCCCC[C@H](NC(=O)OCC5(C)CC5)C(=O)N4C3)nc2c1 [NR01-117, (1-Methylcyclopropyl)methyl ((2R,6S,13aS,14aR,16aS,Z)-2-((7-methoxy-3-(trifluoromethyl)quinoxalin-2-yl)oxy)-14a-(((1-methylcyclopropyl)sulfonyl)carbamoyl)-5,16-dioxo-1,2,3,5,6,7,8,9,10,11,13a,14,14a,15,16,16a-hexadecahydrocyclopropa[e]pyrrolo[1,2-a][1,4]diazacyclopentadecin-6-yl)carbamate]	0.00289 ± 0.00019	0.0186 ± 0.002
COc1ccc2nc(C(F)(F)F)c(O[C@@H]3C[C@H]4C(=O)N[C@]5(C(=O)NS(=O)(=O)C6(C)CC6)C[C@H]5/C=C\CCCCC[C@H](NC(=O)OC5CC(F)(F)C5)C(=O)N4C3)nc2c1 [NR01-151, 3,3-Difluorocyclobutyl ((2R,6S,13aS,14aR,16aS,Z)-2-((7-methoxy-3-(trifluoromethyl)quinoxalin-2-yl)oxy)-14a-(((1-methylcyclopropyl)sulfonyl)carbamoyl)-5,16-dioxo-1,2,3,5,6,7,8,9,10,11,13a,14,14a,15,16,16a-hexadecahydrocyclopropa[e]pyrrolo[1,2-a][1,4]diazacyclopentadecin-6-yl)carbamate]	0.0109 ± 0.0011	0.0432 ± 0.0063
COc1ccc2nc(C(F)(F)F)c(O[C@@H]3C[C@H]4C(=O)N[C@]5(C(=O)NS(=O)(=O)C6(C)CC6)C[C@H]5/C=C\CCCCC[C@H](NC(=O)OC(C)(C)C(F)(F)F)C(=O)N4C3)nc2c1 [NR01-129, 1,1,1-Trifluoro-2-methylpropan-2-yl ((2R,6S,13aS,14aR,16aS,Z)-2-((7-methoxy-3-(trifluoromethyl)quinoxalin-2-yl)oxy)-14a-(((1-methylcyclopropyl)sulfonyl)carbamoyl)-5,16-dioxo-1,2,3,5,6,7,8,9,10,11,13a,14,14a,15,16,16a-hexadecahydrocyclopropa[e]pyrrolo[1,2-a][1,4]diazacyclopentadecin-6-yl)carbamate]	0.0036 ± 0.0003	0.0155 ± 0.0018
COc1ccc2nc(C(F)(F)F)c(O[C@@H]3C[C@H]4C(=O)N[C@]5(C(=O)NS(=O)(=O)C6(C)CC6)C[C@H]5/C=C\CCCCC[C@H](NC(=O)O[C@H](C)C(F)(F)F)C(=O)N4C3)nc2c1 [NR01-147, (R)-1,1,1-Trifluoropropan-2-yl ((2R,6S,13aS,14aR,16aS,Z)-2-((7-methoxy-3-(trifluoromethyl)quinoxalin-2-yl)oxy)-14a-(((1-methylcyclopropyl)sulfonyl)carbamoyl)-5,16-dioxo-1,2,3,5,6,7,8,9,10,11,13a,14,14a,15,16,16a-hexadecahydrocyclopropa[e]pyrrolo[1,2-a][1,4]diazacyclopentadecin-6-yl)carbamate]	0.0028 ± 0.0007	0.017 ± 0.0024
COc1ccc2nc(C(F)(F)F)c(O[C@@H]3C[C@H]4C(=O)N[C@]5(C(=O)NS(=O)(=O)C6(C)CC6)C[C@H]5/C=C\CCCCC[C@H](NC(=O)OCC5(C(F)(F)F)CC5)C(=O)N4C3)nc2c1 [NR02-50, (1-(Trifluoromethyl)cyclopropyl)methyl ((2R,6S,13aS,14aR,16aS,Z)-2-((7-methoxy-3-(trifluoromethyl)quinoxalin-2-yl)oxy)-14a-(((1-methylcyclopropyl)sulfonyl)carbamoyl)-5,16-dioxo-1,2,3,5,6,7,8,9,10,11,13a,14,14a,15,16,16a-hexadecahydrocyclopropa[e]pyrrolo[1,2-a][1,4]diazacyclopentadecin-6-yl)carbamate]	0.00346 ± 0.00026	0.0395 ± 0.0051
COc1ccc2nc(C(F)(F)F)c(O[C@@H]3C[C@H]4C(=O)N[C@]5(C(=O)NS(=O)(=O)C6(C)CC6)C[C@H]5/C=C\CCCCC[C@H](NC(=O)OC5CCC5)C(=O)N4C3)nc2c1 [NR01-95, Cyclobutyl ((2R,6S,13aS,14aR,16aS,Z)-2-((7-methoxy-3-(trifluoromethyl)quinoxalin-2-yl)oxy)-14a-(((1-methylcyclopropyl)sulfonyl)carbamoyl)-5,16-dioxo-1,2,3,5,6,7,8,9,10,11,13a,14,14a,15,16,16a-hexadecahydrocyclopropa[e]pyrrolo[1,2-a][1,4]diazacyclopentadecin-6-yl)carbamate]	0.00853 ± 0.00087	0.0295 ± 0.0018
COc1ccc2nc(C)c(O[C@@H]3C[C@H]4C(=O)N[C@]5(C(=O)NS(=O)(=O)C6(C)CC6)C[C@H]5/C=C\CCCCC[C@H](NC(=O)O[C@@H](C)C5CC5)C(=O)N4C3)nc2c1 [NR02-25, (S)-1-Cyclopropylethyl ((2R,6S,13aS,14aR,16aS,Z)-2-((7-methoxy-3-methylquinoxalin-2-yl)oxy)-14a-(((1-methylcyclopropyl)sulfonyl)carbamoyl)-5,16-dioxo-1,2,3,5,6,7,8,9,10,11,13a,14,14a,15,16,16a-hexadecahydrocyclopropa[e]pyrrolo [1,2-a][1,4]diazacyclopentadecin-6-yl)carbamate]	0.00184 ± 0.00012	0.0319 ± 0.0018
